In one assay the test system is Gs and Gi proteins. The conditions noted are these: cited from earlier work.
In a further assay the test system is beta-arrestin1. Nature of the assay: Beta-arrestin 1 levels in rat brain areas after chronic antidepressant treatment (immunoblot). In kind it is in vivo. The conditions noted are these: three weeks of treatment. As for the experimental part:
On the 22nd day, rats were decapitated, blood collected and brain regions immediately dissected. Tissue homogenization was carried out in a glass-teflon homogenizer with ice-cold buffer containing 20 mM Tris.Cl pH 7.4, 2 mM EDTA, 1 mM DTT and antiprotease cocktail (Sigma). After initial centrifugation at 800 g for 5 min, the supernatant was collected and further centrifuged at 48,000 g for 30 min using a Beckman Ti80 rotor. The resulting supernatant and pellet were separated: the supernatant fraction was collected and centrifuged at 120,000 g for 45 min and the supernatant obtained was used for all measurements; the pellet was resuspended in the homogenization buffer and the pellet fraction obtained was used for all measurements.
On the day of assay, cytosolic and/or membrane fraction were thawed. 10 μg total protein aliquots were taken for protein separation by SDS-(10%) polyacrylamide gel electrophoresis. The resulting proteins were transferred to nitrocellulose paper by use of electroblotting apparatus. Blots were blocked with 5% BSA for 1 hr in TBS containing 0.1% Tween-20 (TTBS) and incubated overnight with a monoclonal antibody to beta-arrestin1 (Transduction Labs, diluted 1:250). The immune bands were detected by subsequent incubation with anti-mouse IgG labeled with horseradishperoxidase using the Enhanced Chemiluminescence Western Blot Detection System (Amersham) followed by exposure to Kodak X-Omat film. […] Peak heights of immunoreactive bands presented as arbitrary absorbance units, were determined with a computer-assisted imaging system for semi-quantitative measurements. 10 μg rat cortical membranes run in each blot as a standard reference.
Beta-arrestin1 levels were measured in three rat brain areas: cortex, hippocampus and striatum.
Background: A western blot detects proteins with antibodies after separation by electrophoresis.

Regarding `O=C(CCCN1CCC(O)(c2ccc(Cl)cc2)CC1)c1ccc(F)cc1` [haloperidol], the “Dopamine-induced Gs hyperfunction of untreated patients with schizophrenia” value with Gs and Gi proteins (leukocytes of patients with schizophrenia) is “corrected”. Further, in the assay with Gs and Gi proteins (patients with schizophrenia, reduction correlated with intensity of Parkinsonian side effects), the “Gs level and function” value was “significant decrease in Gs level and function to below normal levels”.

With `CN(C)CCCN1c2ccccc2CCc2ccccc21` [imipramine], the “Cytosolic beta-arrestin-1 in rat cortex” value in the assay with beta-arrestin1 (rat cortex, cytosolic fraction, 10 mg/kg twice daily intragastrically, compared with control group) amounted to 165.6%. Further, in the assay on beta-arrestin1 (rat cortex, membrane fraction, 10 mg/kg twice daily intragastrically, compared with control group), the “Membrane beta-arrestin 1 in rat cortex” value was 156.8%. Moreover, the “Cytosolic beta-arrestin-1 in rat hippocampus” value with beta-arrestin1 (rat hippocampus, cytosolic fraction, 10 mg/kg twice daily intragastrically, compared with control group) stood at 179.2%. In addition, in the assay on beta-arrestin1 (rat striatum), the “Beta-arrestin 1 levels in striatum” value is “no alterations”.

These data come from patent US7736621B2, “Methods for gauging the effect of a depression treatment by determining the levels of beta-arrestin 1 and G-protein coupled receptor kinase 2” (Hypatia Ltd., priority 2004, dated 2010).
